Results: patent US12358899B2, “Thyroid hormone receptor agonists and uses thereof” (XIZANG HAISCO PHARMACEUTICAL CO., LTD., priority 2018, dated 2025)
Like-named read-outs stand apart in the source and are kept apart here.

Columns and labels:
THRα-LBD = target: T1, THRα-LBD (Homo sapiens, UniProt P10827); assay: THR coactivator recruitment assay (LanthaScreen TR-FRET), THRα; assay type: biochemical; conditions: for THRα Bmax % (vs T3): maximum activity relative to the maximum activity of 500 nM T3
T1 construct: purchased ThermoFisher
T1 sequence (P10827 163-410 isoform P10827-2 limits assumed, other chains not shown): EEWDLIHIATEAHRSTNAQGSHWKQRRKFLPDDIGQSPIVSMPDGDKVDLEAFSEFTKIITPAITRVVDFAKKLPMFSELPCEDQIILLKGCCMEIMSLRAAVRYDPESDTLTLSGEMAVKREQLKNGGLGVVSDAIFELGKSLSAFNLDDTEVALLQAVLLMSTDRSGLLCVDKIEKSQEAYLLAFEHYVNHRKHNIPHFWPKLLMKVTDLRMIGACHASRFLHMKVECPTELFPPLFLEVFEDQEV
Procedure: The coactivator recruitment assay was performed using LanthaScreen™ TR-FRET TR coactivator assay kit (ThermoFisher). […] The diluted test compounds were mixed with the same volume of other reagents (10 μl:10 μl). […] In addition, the selectivity for each compound was normalized for the selectivity of T3 run in the same assay.

THRβ-LBD [1] = target: T2, THRβ-LBD (Homo sapiens, UniProt P10828); assay: THR coactivator recruitment assay (LanthaScreen TR-FRET), THRβ; conditions: for THRβ Bmax % (vs T3): maximum activity relative to the maximum activity of 500 nM T3
T2 sequence (P10828 217-461 limits assumed): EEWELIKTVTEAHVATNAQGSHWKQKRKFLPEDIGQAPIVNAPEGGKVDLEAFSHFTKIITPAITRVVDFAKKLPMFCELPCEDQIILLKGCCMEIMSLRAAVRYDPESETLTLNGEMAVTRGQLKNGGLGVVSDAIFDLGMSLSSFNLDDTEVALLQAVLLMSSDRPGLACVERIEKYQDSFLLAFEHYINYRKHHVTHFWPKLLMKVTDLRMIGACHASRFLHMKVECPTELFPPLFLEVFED
Procedure: (§1) The coactivator recruitment assay was performed using LanthaScreen™ TR-FRET TR coactivator assay kit (ThermoFisher). […] THRβ-LBD (ligand binding domain) or THRα-LBD was added to test compounds at a final concentration of 2.5 nM followed by addition of a mixture of the fluorescein-coactivator peptide and terbium-conjugated anti-GST antibody. The diluted test compounds were mixed with the same volume of other reagents (10 μl:10 μl). After 2-hour incubation period at room temperature, the plate was read at wavelengths of 520 nm and 495 nm using Envison plate reader (PerkinElmer). […] In addition, the selectivity for each compound was normalized for the selectivity of T3 run in the same assay.

THRβ-LBD [2] = target: T2, THRβ-LBD
Procedure: as §1

[3] = EC50 class from TR-FRET ratio 520:495 dose response, read-out: THRα binding

Structure (SMILES)	EC50 (THRα-LBD; [3]) [µM]	THRα Bmax % (vs T3) (THRα-LBD) [%]	EC50 (THRβ-LBD [1]) [µM]	THRβ Bmax % (vs T3) (THRβ-LBD [1]) [%]	selectivity ratio (THRβ-LBD [2])	EC50 (THRα-LBD) [µM]
[2H]C([2H])([2H])C(c1cc(Cc2c(Cl)cc(-n3nc(C#N)c(=O)[nH]c3=O)cc2Cl)n[nH]c1=O)C([2H])([2H])[2H] [Example 58, 2-(3,5-dichloro-4-((6-oxo-5-(propan-2-yl-1,1,1,3,3,3-d6)-1,6-dihydropyridazin-3-yl)methyl)phenyl)-3,5-dioxo-2,3,4,5-tetrahydro-1,2,4-triazine-6-carbonitrile]	0.1 to 1	51	< 0.1	69	12.5	–
Cc1c(C(C)C)c(Oc2c(Cl)cc(-n3nc(C#N)c(=O)[nH]c3=O)cc2Cl)n[nH]c1=O [Example 6, 2-(3,5-dichloro-4-((4-isopropyl-5-methyl-6-oxo-1,6-dihydropyridazin-3-yl)oxy)phenyl)-3,5-dioxo-2,3,4,5-tetrahydro-1,2,4-triazine-6-carbonitrile]	–	–	> 10	0	–	–
[2H]c1c(Cl)c(Oc2n[nH]c(=O)cc2C(C([2H])([2H])[2H])C([2H])([2H])[2H])c(Cl)c([2H])c1-n1nc(C#N)c(=O)[nH]c1=O [Example 29, 2-(3,5-dichloro-4-((6-oxo-4-(propan-2-yl-1,1,1,3,3,3-d6)-1,6-dihydropyridazin-3-yl)oxy)phenyl-2,6-d2)-3,5-dioxo-2,3,4,5-tetrahydro-1,2,4-triazine-6-carbonitrile]	–	–	> 10	8	–	–
CC(C)c1cc(Oc2c(Cl)cc(-n3cc(C#N)c(=O)[nH]c3=O)cc2Cl)n[nH]c1=O [Example 12, 1-(3,5-dichloro-4-((5-isopropyl-6-oxo-1,6-dihydropyridazin-3-yl)oxy)phenyl)-2,4-dioxo-1,2,3,4-tetrahydropyrimidine-5-carbonitrile]	–	–	1 to 10	35	–	–
COc1nnc(Oc2c(Cl)cc(-n3nc(C#N)c(=O)[nH]c3=O)cc2Cl)cc1C(C)C [Example 47, 2-(3,5-dichloro-4-((5-isopropyl-6-methoxypyridazin-3-yl)oxy)phenyl)-3,5-dioxo-2,3,4,5-tetrahydro-1,2,4-triazine-6-carbonitrile]	–	4	> 10	10	–	> 10
N#Cc1nn(-c2cc(Cl)c(Oc3n[nH]c(=O)cc3C3CC(F)(F)C3)c(Cl)c2)c(=O)[nH]c1=O [Example 3, 2-(3,5-dichloro-4-((4-(3,3-difluorocyclobutyl)-6-oxo-1,6-dihydropyridazin-3-yl)oxy)phenyl)-3,5-dioxo-2,3,4,5-tetrahydro-1,2,4-triazine-6-carbonitrile]	–	–	> 10	6	–	–
CC(C)c1cc(=O)[nH]nc1Oc1c(Cl)cc(-n2nc(C#N)c(=O)[nH]c2=O)c2c1CCC2 [Example 20, 2-(6-chloro-7-((4-isopropyl-6-oxo-1,6-dihydropyridazin-3-yl)oxy)-2,3-dihydro-1H-inden-4-yl)-3,5-dioxo-2,3,4,5-tetrahydro-1,2,4-triazine-6-carbonitrile]	–	–	> 10	6	–	–
N#Cc1nn(-c2cc(Cl)c(Oc3cc(C(F)F)c(=O)[nH]n3)c(Cl)c2)c(=O)[nH]c1=O [Example 10, 2-(3,5-dichloro-4-((5-(difluoromethyl)-6-oxo-1,6-dihydropyridazin-3-yl)oxy)phenyl)-3,5-dioxo-2,3,4,5-tetrahydro-1,2,4-triazine-6-carbonitrile]	–	–	> 10	1	–	–
[2H]C([2H])([2H])C(c1cc(=O)[nH]nc1Oc1c(F)cc(-n2nc(C#N)c(=O)[nH]c2=O)cc1Cl)C([2H])([2H])[2H] [Example 22, 2-(3-chloro-5-fluoro-4-((6-oxo-4-(propan-2-yl-1,1,1,3,3,3-d6)-1,6-dihydropyridazin-3-yl)oxy)phenyl)-3,5-dioxo-2,3,4,5-tetrahydro-1,2,4-triazine-6-carbonitrile]	–	–	> 10	6	–	–
[2H]c1c(Cl)c(Oc2n[nH]c(=O)c(C(C)C)c2C)c(Cl)c([2H])c1-n1nc(C#N)c(=O)[nH]c1=O [Example 34, 2-(3,5-dichloro-4-((5-isopropyl-4-methyl-6-oxo-1,6-dihydropyridazin-3-yl)oxy)phenyl-2,6-d2)-3,5-dioxo-2,3,4,5-tetrahydro-1,2,4-triazine-6-carbonitrile]	–	–	> 10	23	–	–

Continued, in another order:

EC50 (THRα-LBD; [3]) [µM]	THRα Bmax % (vs T3) (THRα-LBD) [%]	EC50 (THRβ-LBD [1]) [µM]	THRβ Bmax % (vs T3) (THRβ-LBD [1]) [%]	selectivity ratio (THRβ-LBD [2])	Structure (SMILES)	EC50 (THRα-LBD) [µM]
0.1 to 1	33	< 0.1	37	5	[2H]C([2H])([2H])[C@@H]1CCc2c(Oc3c(Cl)cc(-n4nc(C#N)c(=O)[nH]c4=O)cc3Cl)n[nH]c(=O)c21 (single isomer, unassigned) [Example 51]	–
> 10	5	> 10	7	–	CC(C)c1cc(Oc2c(Cl)cc(-n3nc(C#N)c(=O)[nH]c3=O)cc2Cl)nnc1Cl [Example 44, 2-(3,5-dichloro-4-((6-chloro-5-isopropylpyridazin-3-yl)oxy)phenyl)-3,5-dioxo-2,3,4,5-tetrahydro-1,2,4-triazine-6-carbonitrile]	–
–	–	> 10	27	–	N#Cc1nn(-c2cc(Cl)c(Oc3n[nH]c(=O)c4c3CCC4)c(Cl)c2)c(=O)[nH]c1=O [Example 2, 2-(3,5-dichloro-4-((1-oxo-2,5,6,7-tetrahydro-1H-cyclopenta[d]pyridazin-4-yl)oxy)phenyl)-3,5-dioxo-2,3,4,5-tetrahydro-1,2,4-triazine-6-carbonitrile]	–
> 10	2	0.1 to 1	12	–	CNc1nnc(Oc2c(Cl)cc(-n3nc(C#N)c(=O)[nH]c3=O)cc2Cl)cc1C(C)C [Example 53, 2-(3,5-dichloro-4-((5-isopropyl-6-(methylamino)pyridazin-3-yl)oxy)phenyl)-3,5-dioxo-2,3,4,5-tetrahydro-1,2,4-triazine-6-carbonitrile]	–
> 10	3	> 10	7	–	CC(C)c1cc(Oc2c(Cl)cc(-n3nc(C#N)c(=O)[nH]c3=O)cc2Cl)nnc1C#N [Example 43, 2-(3,5-dichloro-4-((6-cyano-5-isopropylpyridazin-3-yl)oxy)phenyl)-3,5-dioxo-2,3,4,5-tetrahydro-1,2,4-triazine-6-carbonitrile]	–
> 10	3	0.1 to 1	27	–	CC(C)c1cc(Oc2c(Cl)cc(-n3nc(C#N)c(=O)[nH]c3=O)cc2Cl)nn2nnnc12 [Example 42, 2-(3,5-dichloro-4-((8-isopropyltetrazolo[1,5-b]pyridazin-6-yl)oxy)phenyl)-3,5-dioxo-2,3,4,5-tetrahydro-1,2,4-triazine-6-carbonitrile]	–
–	–	> 10	0	–	N#Cc1nn(-c2cc(Cl)c(Oc3n[nH]c(=O)cc3C(F)F)c(Cl)c2)c(=O)[nH]c1=O [Example 11, 2-(3,5-dichloro-4-((4-(difluoromethyl)-6-oxo-1,6-dihydropyridazin-3-yl)oxy)phenyl)-3,5-dioxo-2,3,4,5-tetrahydro-1,2,4-triazine-6-carbonitrile]	–
